Legend:
pTau = test: AD-related markers in Tg2576 mice: pTau; assay type: in vivo; conditions: hippocampal homogenates, footnote: single dose of 1 mg/Kg i.p.
PDE9A = molecular target: T1, PDE9A (Homo sapiens, UniProt O76083); test: PDE enzyme activity assay (HTRF cGMP), PDE9A; assay type: biochemical; conditions: recombinant enzyme; read-out: PDE9A inhibition (IC50)
T1 construct: they are full-length with N-terminal GST tag; GST (N); purchased BPS Biosciences 60090; host or cells: baculovirus infected Sf9 cells
T1 sequence (O76083 1-533 isoform O76083-2): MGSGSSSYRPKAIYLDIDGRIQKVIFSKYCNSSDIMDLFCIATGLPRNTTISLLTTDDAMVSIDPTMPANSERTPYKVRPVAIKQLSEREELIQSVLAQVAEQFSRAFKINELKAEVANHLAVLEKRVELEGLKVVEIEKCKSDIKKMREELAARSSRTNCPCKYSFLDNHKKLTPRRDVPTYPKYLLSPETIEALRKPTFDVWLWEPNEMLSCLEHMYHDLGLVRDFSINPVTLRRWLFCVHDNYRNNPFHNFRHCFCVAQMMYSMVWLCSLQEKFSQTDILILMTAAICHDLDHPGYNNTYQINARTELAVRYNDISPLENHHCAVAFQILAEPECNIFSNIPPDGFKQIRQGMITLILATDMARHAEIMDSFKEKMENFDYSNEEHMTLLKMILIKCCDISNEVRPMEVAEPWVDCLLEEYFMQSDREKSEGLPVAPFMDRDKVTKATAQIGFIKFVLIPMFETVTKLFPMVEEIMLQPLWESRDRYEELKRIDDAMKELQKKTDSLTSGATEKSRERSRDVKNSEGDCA

[1] = test system: acetylated histone 3 at Lys9 (AcH3K9); test: HDAC activity using SHSY-5Y cell line (Western blot, histone 3 acetylation); assay type: cell-based, human; design: key: basal x1 means no increment (+); basal x1.4≤(++)<basal x2; basal x2≤(+++)<basal x3; basal x3≤(++++); N.E. means No Effect; conditions: SHSY-5Y cells, 24 hours, compound concentration 1 μM
Procedure: HDAC inhibition leads to the corresponding functional response, increase in AcH3 level. Therefore, the cellular assay to conclude HDAC activity was assessed by Western blot analysis using specific antibodies against acetylated histone 3 at Lys9 (AcH3K9). Cell cultures were treated at 100 nM, 500 nM, 1 μM and/or 5 μM with compounds of the invention or known PDE inhibitors during 24 hours and, Table 1 (below) describes the functional activity: histone 3 acetylation level (AcH3) vs basal (no treatment).
A human neuroblastoma cell line (SHSY-5Y) was used. Cell line was obtained from ATCC (CRL-2266) and cultured in 35 mm plates (Becton Dickinson, NJ).
The cells were grown to 90% confluence at 37° C. in an atmosphere of 5% CO2 and in Dulbecco's modified Eagle's medium supplemented with Glutamax (Gibco, Invitrogen, CA), 100 units/ml penicillin/streptomycin, 1×MEM nonessential amino acids and 10% fetal bovine serum (Gibco, Invitrogen, CA).
Cells were collected and sonicated in a buffer containing a cold lysis buffer with protease inhibitors (0.2 M NaCl, 0.1 M HEPES (4-(2-hydroxyethyl)-1-piperazineethanesulfonic acid), 10% glycerol, 200 mM NaF, 2 mM Na4P2O7, 5 mM EDTA (ethylenediaminetetraacetic acid), 1 mM EGTA (ethylene glycol tetraacetic acid), 2 mM DTT (dithiothreitol), 0.5 mM PMSF (phenylmethylsulfonyl fluoride), 1 mM Na3VO4 and Complete Protease Inhibitor Cocktail, Roche Diagnostics), centrifuged at 14,000×g 4° C. for 20 min and the supernatant was aliquoted and stored at −80° C. Total protein concentrations were determined using the BioRad Bradford protein assay (BioRad Laboratories).
Protein samples were mixed with Laemmli sample buffer, resolved onto Sodium Dodecyl Sulfate (SDS)-polyacrylamide gels and transferred to nitrocellulose membrane. The membranes were blocked with 5% milk, 0.05% Tween-20 in PBS (Phosphate-Buffered Saline) or TBS (Tris-Buffered Saline) followed by overnight incubation with the following primary antibodies: rabbit polyclonal anti-acetylated Histone 3 (acetyl K9) (Cell Signalling Technology), rabbit polyclonal anti-total Histone 3 (Millipore), in the corresponding buffer. All the antibodies were used at 1:1000 dilution except the mouse monoclonal anti-β-actin which was used at 1:50.000. Following two washes in TBS/Tween20 and one wash in TBS alone, immunolabeled protein bands were detected by using HRP-conjugated anti-rabbit or anti-mouse antibody (Santa Cruz Biotechnology; dilution 1:5.000) following an enhanced chemiluminescence system (ECL, GE Healthcare Bioscience, Buckinghamshire, UK), and autoradiographic exposure to HyperfilmtECL (GE Healthcare Bioscience). Quantity One™ software v.4.6.3 (Bio-Rad) was used for quantification.

pCREB = test: In-vivo pCREB in hippocampus of wild type mice; design: key: basal x1 means no increment (+); basal x1.4≤(++)<basal x2; basal x2≤(+++)<basal x3; basal x3≤(++++); N.E. means No Effect
Procedure: (§1) Another group of animals received the vehicle (1/1/8, v:v:v, DMSO/Tween 20/saline). One hour later, mice were sacrificed by cervical dislocation and their hippocampus was quickly dissected from the brains. Total tissue homogenates were obtained by homogenizing the hippocampus in a cold lysis buffer with protease inhibitors (0.2 M NaCl, 0.1 M HEPES, 10% glycerol, 200 mM NaF, 2 mM Na4P2O7, 5 mM EDTA, 1 mM EGTA, 2 mM DTT, 0.5 mM PMSF, 1 mM Na3VO4 and Complete Protease Inhibitor Cocktail, Roche Diagnostics). The homogenate was then centrifuged at 14,000×g at 4° C. for 20 min and the supernatant aliquoted and stored at −80° C. Total protein concentrations were determined using the BioRad Bradford protein assay (BioRad Laboratories). Protein samples were analyzed as described in the “in vitro” section.

AcH3 = test: In-vivo AcH3 in hippocampus of wild type mice; design: key: basal x1 means no increment (+); basal x1.4≤(++)<basal x2; basal x2≤(+++)<basal x3; basal x3≤(++++); N.E. means No Effect
Procedure: as §1

[2] = test system: phosphorylated tau (p-Tau); test: AD-related markers in Tg2576 neurons: pTau; assay type: cell-based, mouse; conditions: Mus musculus, Primary neuron, references, read-out: pTau EC50 (50% decrease in pTau levels over basal)
Procedure: The effects of the compounds on amyloid pathology were analysed in primary cultures after 21 days in-vitro (DIV) of neurons derived from the hippocampus and cortex of Tg2576 mouse embryos. Tg2576 mice express the human 695-aa isoform of APP (hAPP) containing the Swedish double mutation, which favours A3 production. Neurons were treated for two days and collected at day 3, 24 h after the last treatment. First it was analysed the effect of the compounds on hAPP processing by the amyloidogenic pathway by measuring the carboxyl terminal fragment AβPP (C99), which is the precursor of Aβ42. […]
It was next analyzed the effect of the compounds on levels of phosphorylated tau (p-Tau) in the same samples, another marker of AD, using a phospho-specific antibody (AT8) that recognizes hyperphosphorylated epitopes on Ser202/Thr205. […]
To analyze APP-derived fragments and p-Tau levels in primary neuronal cultures, cells were collected in a buffer containing SDS (2%), Tris-HCl (10 mM, pH 7.4), protease inhibitors (1 mM phenylmethylsulfonyl fluoride (PMSF) and Complete Protease Inhibitor Cocktail: Roche Diagnostics) and phosphatase inhibitors (0.1 mM Na3VO4 and 1 mM NaF). […] Aliquots of the supernatant were frozen at […] and their protein concentrations determined by the Bradford method using the Bio-Rad protein assay (Bio-Rad, Hercules, Calif., USA). […]

PDE5A1 = molecular target: T2, PDE5A1 (Homo sapiens, UniProt O76074); test: PDE enzyme activity assay (HTRF cGMP), PDE5A; assay type: biochemical; conditions: recombinant enzyme; read-out: PDE5A1 inhibition (IC50)
T2 construct: they are full-length with N-terminal GST tag; GST (N); purchased BPS Biosciences 60050; host or cells: baculovirus infected Sf9 cells

| SMILES | pTau biological response vs basal (pTau) | IC50 (PDE9A) | AcH3: increment in Histone 3 acetylation level vs basal [1] | pCREB increment vs basal (pCREB; single dose of 1 mg/Kg i.p.) | AcH3 increment vs basal (AcH3; single dose of 1 mg/Kg i.p.) | EC50 [2] | pCREB increment vs basal (pCREB; single dose of 12.5 mg/Kg i.p.) | AcH3 increment vs basal (AcH3; single dose of 12.5 mg/Kg i.p.) | IC50 (PDE5A1) |
| --- | --- | --- | --- | --- | --- | --- | --- | --- | --- |
| CN1CC(=O)N2[C@H](c3ccc4c(c3)OCO4)c3[nH]c4ccccc4c3C[C@@H]2C1=O [Tadalafil] | +++ (basal x2≤(+++)<basal x3) | > 10 µM | N.E. | +++ (basal x2≤(+++)<basal x3) | N.E. | 0.01 to 1 µM |  |  |  |
| O=C(CCCCCCC(=O)Nc1ccccc1)NO [Vorinostat] |  | > 10 µM | ++++ (basal x3≤(++++)) |  |  |  | N.E. | +++ (basal x2≤(+++)<basal x3) | > 10 µM |
